Measured values taken from US6867320B2, “Substituted phenylalkanoic acid derivatives and use thereof” (Asahi Kasei Pharma Corporation, priority 2002, dated 2005).

Legend:
[1] = test system: PGE2 production from IL-1β-stimulated MG-63 cells; test: Suppressing action on PGE2 production from IL-1β-stimulated MG-63 cells; assay type: cell-based; conditions: Homo sapiens, IL-1β 1 ng/ml, 18 hours, read-out: PGE2 production suppression ratio
Summary of the method: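 PGE2 in 18 h supernatants was quantified by EIA and expressed as % suppression relative to IL-1β-only and unstimulated controls. Cells were the MG-63 osteosarcoma line, plated at 2×10^4/well, given compound in 0.5% FBS EMEM, then 1 ng/ml IL-1β final.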

[2] = test system: LTB4 production from IgE-stimulated RBL-2H3 cells; test: Suppressing action on LTB4 production from IgE-stimulated RBL-2H3 cells; assay type: cell-based; conditions: Rattus norvegicus, 10 min, IgE/DNP-BSA stimulated RBL-2H3 cells, read-out: LTB4 production suppression ratio
Excerpt: (§1) 2. Suppressing Action on PGD2 and LTB4 Production from IgE-Stimulated RBL-2H3 Cells
(§2) Suppressing action on PGD2 and LTB4 production caused by IgE as an allergic stimulant was investigated by the following method. Cells of RBL-2H3, which is a rat mastocytoma cell line (purchased from ATCC), were suspended in DEMEM medium (GIBCO) containing 10% fetal bovine serum (BioFluid), inoculated to each well of 48-well culture plate at a density of 2×10^4 cells/well and cultured overnight. Then, IgE antiserum directed to dinitrophenylated BSA (henceforth DNP-BSA) was further added to each well, and the cells were cultured for 30 minutes. Then, the medium was changed to DEMEM medium containing 0.5% fetal bovine serum, a test compound was added with each well, and DNP-BSA was further added at a final concentration of 100 ng/ml as a stimulant. Ten minutes after the stimulant was added, the culture supernatant was collected, and the PGD2 concentration and LTB4 concentration in the culture supernatant were measured by using EIA kit (CAYMAN). By using a well which was not added with the stimulant as a negative control and a well which was added only with the stimulant as a positive control, suppressing ratios on mediator production were calculated from the production amounts of the mediators in the well added with the test compound using the following equation. PGD2 or LTB4 production suppression ratio=[1−(C−B)/(A−B)]×100 • A: PGD2 or LTB4 production amount of positive control • B: PGD2 or LTB4 production amount of negative control • C: PGD2 or LTB4 production amount in well added with test compound
(§3) Further, as control compounds for comparison, reference compound (1), 3-(2-cyclohexylmethyloxy-1,1′-biphenyl-5-yl)propionic acid described in WO99/19291, reference compounds (2) and (3), [2-(5,6,7,8-tetrahydro-5,5,8,8-tetramethyl-2-naphthalenyl)methyloxy-1,1′-biphenyl-5-yl]carboxylic acid [reference compound (2)] and 3-[3′-carboxy-2-(5,6,7,8-tetrahydro-5,5,8,8-tetramethyl-2naphthalenyl)methyloxy-1,1′-biphenyl-6-yl]propionic acid [reference compound (3)] described in U.S. Pat. No. 5,391,817 and Japanese Patent Unexamined Publication (Kokai) No. 7-22399, respectively, were used, and activities thereof were similarly measured.

[3] = test system: zymosan-stimulated footpad edema; test: Mouse zymosan-stimulated footpad edema reaction; assay type: in vivo; conditions: ICR female mice, oral 0.1 to 500 mg/kg, compared with positive control group
Protocol: 3. Suppressing Effect on Mouse Zymosan-stimulated Footpad Edema Reaction A suppressing effect on footpad edema caused by zymosan as an inflammatory stimulant was studied by the following method. Groups of ICR female mice (6- to 7-week old) each consisting of eight mice were used for the test. A test compound was suspended or dissolved in purified water containing 0.5% methylcellulose and orally administered to the test animals at 0.1 to 500 mg/0.2 ml/kg. To the control group, purified water containing 0.5% methylcellulose was administered in a similar manner, which was not added with a test compound. One hour after the administration of the test compound, 0.02 ml of a suspension of zymosan suspended in physiological saline (Otsuka Pharmaceutical) at 1 mg/ml was subcutaneously administered to right hind leg footpad of each mouse. One and two hours after the administration of the zymosan suspension, volume of the right hind leg footpad was measured by using an apparatus for measuring a volume of mouse hind leg footpad edema (Unicom). A difference of the volume of footpad measured above and the footpad volume before the administration of the test compound measured beforehand was regarded as a volume of the edema. For the volume of the edema at 1 hour or 2 hours after the zymosan administration, a graph was prepared by indicating time in abscissa and the edema volume in ordinate, and an edema volume AUC (area under the curve) was obtained up to 2 hours by calculation using the following equation. Edema volume AUC (1·hour)=1/2×1×A+1×(A+B)/2 • A: Edema volume 1 hour after zymosan administration • B: Edema volume 2 hour after zymosan administration A suppression ratio on edema of test compound was obtained by calculation using the following equation. Edema suppression ratio (%)=[1−B/A]×100 • A: Edema volume AUC of positive control • B: Edema volume AUC of test compound administered group (2) Measurement Results

[4] = test system: PGD2 production from IgE-stimulated RBL-2H3 cells; test: Suppressing action on PGD2 production from IgE-stimulated RBL-2H3 cells; assay type: cell-based; conditions: Rattus norvegicus, 10 min, IgE/DNP-BSA stimulated RBL-2H3 cells, read-out: PGD2 production suppression ratio
Excerpt: as §1, §2, §3

Compound | inhibition at 0.4 µM [1] | inhibition at 0.4 µM [2] | suppression of footpad edema caused by zymosan [3] | inhibition at 0.4 µM [4]
O=C(O)CCc1ccc(OCC2CCCC2)c(-c2ccc3cc(O)ccc3c2)c1 [Compound 004, 3-[4-cyclopentylmethyloxy-3-(6-hydroxynaphthalen-2-yl)phenyl]propionic acid] | ≥ 50% | ≥ 50% | suppressed footpad edema | ≥ 50%
CNc1ccc2cc(-c3cc(CCC(=O)O)ccc3OCC3CCCC3)ccc2c1 [Compound 016, 3-{4-cyclopentylmethyloxy-3-[6-(N-methylamino)naphthalen-2-yl]phenyl}propionic acid] | ≥ 50% | ≥ 50% | – | ≥ 50%
O=C(O)CCc1ccc(OCc2cccc(F)c2)c(-c2ccc3ccccc3c2)c1 [Compound 035, 3-[4-(3-fluorophenylmethyloxy)-3-(naphthalen-2-yl)phenyl]propionic acid] | – | ≥ 50% | – | ≥ 50%
O=C(O)CCc1ccc(OC2CCCCC2)c(-c2ccc3ccccc3c2)c1 [Compound 045, 3-[4-cyclohexyloxy-3-(naphthalen-2-yl)phenyl]propionic acid] | ≥ 50% | ≥ 50% | – | ≥ 50%
O=C(O)CCc1ccc(OCC2CCCC2)c(-c2ccc3cc(NCCO)ccc3c2)c1 [Compound 075, 3-{4-cyclopentylmethyloxy-3-[6-(2-hydroxyethylamino)naphthalen-2-yl]phenyl}propionic acid] | ≥ 50% | ≥ 50% | – | ≥ 50%
O=C(O)CCc1ccc(OCC2CCCC2)c(-c2ccc3cc(NC(=O)c4ccco4)ccc3c2)c1 [Compound 081, 3-(4-cyclopentylmethyloxy-3-{6-[(furan-2-carbonyl)amino]naphthalen-2-yl}phenyl)propionic acid] | ≥ 50% | ≥ 50% | – | ≥ 50%
O=C(O)CCc1ccc(OCc2ccc(Cl)cc2Cl)c(-c2ccc3[nH]ccc3c2)c1 [Compound 162, 3-[4-(2,4-dichlorophenylmethyloxy)-3-(1H-indol-5-yl)phenyl]propionic acid] | ≥ 50% | ≥ 50% | – | ≥ 50%
CCCCOc1ccc(COc2ccc(CCC(=O)OC)cc2-c2ccc3[nH]ccc3c2)cc1 [Compound 185, methyl 3-{4-[4-(butyloxy)phenylmethyloxy]-3-(1H-indol-5-yl)-phenyl}propionate] | – | ≥ 50% | suppressed footpad edema | ≥ 50%
O=C(O)CCc1ccc(OCCc2cccc(Cl)c2)c(-c2ccc3[nH]ccc3c2)c1 [Compound 211, 3-{4-[2-(3-chlorophenyl)ethyloxy]-3-(1H-indol-5-yl)phenyl}propionic acid] | ≥ 50% | ≥ 50% | – | ≥ 50%
CCn1ccc2cc(-c3cc(CCC(=O)O)ccc3OCc3ccccc3Cl)ccc21 [Compound 250, 3-[4-(2-chlorophenylmethyloxy)-3-(1-ethyl-1H-indol-5-yl)phenyl]propionic acid] | ≥ 50% | ≥ 50% | – | ≥ 50%
Nc1nc2ccc(-c3cc(CCC(=O)O)ccc3OCC3CCCC3)cc2s1 [Compound 287, 3-[3-(2-aminobenzothiazol-6-yl)-4-cyclopentylmethyloxyphenyl]propionic acid] | ≥ 50% | ≥ 50% | – | ≥ 50%
O=C(O)CCc1cc(F)c(OC2CCCC2)c(-c2ccc3[nH]ncc3c2)c1 [Compound 481, 3-[4-cyclopentyloxy-3-fluoro-5-(1H-indazol-5-yl)phenyl]propionic acid] | ≥ 50% | ≥ 50% | – | ≥ 50%
Cn1ncc2cc(-c3cc(CCC(=O)O)cc(F)c3OC3CCCC3)ccc21 [Compound 483, 3-[4-cyclopentyloxy-3-fluoro-5-(1-methyl-1H-indazol-5-yl)phenyl]propionic acid] | ≥ 50% | ≥ 50% | – | ≥ 50%
Nc1cc(CCC(=O)O)cc(-c2ccc3[nH]ncc3c2)c1OC1Cc2ccccc2C1 [Compound 486, 3-[3-amino-4-(indan-2-yloxy)-5-(1H-indazol-5-yl)phenyl]propionic acid] | ≥ 50% | ≥ 50% | – | ≥ 50%
CCn1ncc2cc(-c3cc(CCC(=O)O)cc(N)c3OC3Cc4ccccc4C3)ccc21 [Compound 489, 3-[3-amino-5-(1-ethyl-1H-indazol-5-yl)-4-(indan-2-yloxy)phenyl]propionic acid] | ≥ 50% | ≥ 50% | – | ≥ 50%
Cn1ncc2cc(-c3cc(CCC(=O)O)cc(O)c3OC3Cc4ccccc4C3)ccc21 [Compound 569, 3-[4-(indan-2-yloxy)-3-hydroxy-5-(1-methyl-1H-indazol-5-yl)phenyl]propionic acid] | ≥ 50% | ≥ 50% | – | ≥ 50%
Cc1cc(CCC(=O)O)cc(-c2ccc3c(cnn3C)c2)c1OC1CCCC1 [Compound 572, 3-[4-cyclopentyloxy-3-methyl-5-(1-methyl-1H-indazol-5-yl)phenyl]propionic acid] | ≥ 50% | ≥ 50% | – | ≥ 50%
CN(C)c1cc(CCC(=O)O)cc(-c2ccc3c(cnn3C)c2)c1OC1Cc2ccccc2C1 [Compound 586, 3-[4-(indan-2-yloxy)-3-(N,N-dimethylamino)-5-(1-methyl-1H-indazol-5-yl)phenyl]propionic acid] | ≥ 50% | ≥ 50% | – | ≥ 50%
O=C(O)CCc1ccc(OCC2CCCCC2)c(-c2ccccc2)c1 [reference compound (1), 3-(2-cyclohexylmethyloxy-1,1′-biphenyl-5-yl)propionic acid, reference compound] | – | -5.9% | – | -12.9%
CC1(C)CCC(C)(C)c2cc(COc3ccc(C(=O)O)cc3-c3ccccc3)ccc21 [reference compound (2), [2-(5,6,7,8-tetrahydro-5,5,8,8-tetramethyl-2-naphthalenyl)methyloxy-1,1′-biphenyl-5-yl]carboxylic acid, reference compound] | – | -15.3% | – | -17.6%
CC1(C)CCC(C)(C)c2cc(COc3cccc(CCC(=O)O)c3-c3cccc(C(=O)O)c3)ccc21 [reference compound (3), 3-[3′-carboxy-2-(5,6,7,8-tetrahydro-5,5,8,8-tetramethyl-2naphthalenyl)methyloxy-1,1′-biphenyl-6-yl]propionic acid, reference compound] | – | -6.3% | – | 2.1%
